Reference: patent publication US12247031B2, “Cyclobutyl pyrazolopyrimidine PDE9 inhibitors” (Merck Sharp & Dohme LLC, priority 2018, dated 2025)

Molecular target: Human PDE9 (PDE9A2) (Homo sapiens (Human), UniProt O76083)
Experiment: PDE9 IMAP fluorescence polarization assay
Format: biochemical
Conditions: human PDE9A2, FAM-cGMP substrate 50 nM, IMAP FP, apparent inhibition constant
Experimental: The activity of the compounds in accordance with the present invention as PDE9 inhibitors may be readily determined without undue experimentation using a fluorescence polarization (FP) methodology that is well known in the art (Huang, W., et al., J. Biomol Screen. 2002, 7: 215).
In a typical experiment the PDE9 inhibitory activity of the compounds of the present invention was determined in accordance with the following experimental method.
Human PDE9 (PDE9A2, GenBank Accession No. NM_001001567), full length with N-terminal GST tag, was purchased from BPS Bioscience. The fluorescence polarization assay for cyclic nucleotide phosphodiesterases was performed using an IMAP® FP kit supplied by Molecular Devices, Sunnyvale, CA (product #R8139). IMAP® technology has been applied previously to phosphodiesterase assays (Huang, W., et al., J. Biomol Screen. 2002, 7: 215).
Fluorescence polarization (mP) was calculated from the parallel (S) and perpendicular (P) fluorescence of each sample well and the analogous values for the median control well, containing only substrate (So and Po), using the following equation: Polarization (mP)=1000*(S/So−P/Po)/(S/So+P/Po).
Dose-inhibition profiles for each compound were characterized by fitting the mP data to a four-parameter equation given below. The apparent inhibition constant (KI), the maximum inhibition at the low plateau relative to “100% Inhibition Control” (Imax; e.g. 1=>same as this control), the minimum inhibition at the high plateau relative to the “0% Inhibition Control” (Imin, e.g. 0=>same as the no drug control) and the Hill slope (nH) are determined by a non-linear least squares fitting of the mP values as a function of dose of the compound using an in-house software based on the procedures described by Mosser et al., JALA. 2003, 8: 54-63, using the following equation: […]

| Structure (SMILES) | Ki |
| --- | --- |
| C[C@@H](c1ccc(C(F)(F)F)nc1)n1nc(C#N)c2c(=O)[nH]c(C3CCC3c3cc4n(n3)CCC4)nc21 (stereo partly drawn) [Example 12, 6-(2-(5,6-dihydro-4H-pyrrolo[1,2-b]pyrazol-2-yl)cyclobutyl)-4-oxo-1-((S)-1-(6-(trifluoromethyl)pyridin-3-yl)ethyl)-4,5-dihydro-1H-pyrazolo[3,4-d]pyrimidine-3-carbonitrile] | 608 nM |
| C[C@@H](c1ccc(C(F)(F)F)nc1)n1nc(C#N)c2c(=O)[nH]c(C3CCC3c3cncnc3)nc21 (stereo partly drawn) [Example 22, 4-oxo-6-(2-(pyrimidin-5-yl)cyclobutyl)-1-((S)-1-(6-(trifluoromethyl)pyridin-3-yl)ethyl)-4,5-dihydro-1H-pyrazolo[3,4-d]pyrimidine-3-carbonitrile] | 608 nM |
| C[C@@H](c1ccc(C(F)(F)F)nc1)n1nc(C#N)c2c(=O)[nH]c(C3CCC3c3cncnc3)nc21 (stereo partly drawn) [Example 23, 4-oxo-6-(2-(pyrimidin-5-yl)cyclobutyl)-1-((S)-1-(6-(trifluoromethyl)pyridin-3-yl)ethyl)-4,5-dihydro-1H-pyrazolo[3,4-d]pyrimidine-3-carbonitrile] | 608 nM |
| CC(c1ccc(C(F)(F)F)nc1)n1nc(C#N)c2c(=O)[nH]c(C3CCC3N3CCOCC3=O)nc21 (centres unmarked) [Example 30, 4-oxo-6-(2-(3-oxomorpholino)cyclobutyl)-1-(1-(6-(trifluoromethyl)pyridin-3-yl)ethyl)-4,5-dihydro-1H-pyrazolo[3,4-d]pyrimidine-3-carbonitrile] | 608 nM |
| C[C@@H](c1ccc(C(F)(F)F)nc1)n1nc(C#N)c2c(=O)[nH]c(C3CCC3n3cc(C(F)(F)F)cn3)nc21 (stereo partly drawn) [Example 31, 4-oxo-6-(2-(4-(trifluoromethyl)-1H-pyrazol-1-yl)cyclobutyl)-1-((S)-1-(6-(trifluoromethyl)pyridin-3-yl)ethyl)-4,5-dihydro-1H-pyrazolo[3,4-d]pyrimidine-3-carbonitrile] | 0.399 nM |
| C[C@@H](c1ccc(C(F)(F)F)nc1)n1nc(C#N)c2c(=O)[nH]c(C3CCC3n3ccc(C(F)(F)F)n3)nc21 (stereo partly drawn) [Example 32, 4-oxo-6-(2-(3-(trifluoromethyl)-1H-pyrazol-1-yl)cyclobutyl)-1-((S)-1-(6-(trifluoromethyl)pyridin-3-yl)ethyl)-4,5-dihydro-1H-pyrazolo[3,4-d]pyrimidine-3-carbonitrile] | 608 nM |
| CC(C1CCOCC1)n1nc(C#N)c2c(=O)[nH]c(C3CCC3n3cccn3)nc21 (centres unmarked) [Example 40, 6-(2-(1H-pyrazol-1-yl)cyclobutyl)-4-oxo-1-(1-(tetrahydro-2H-pyran-4-yl)ethyl)-4,5-dihydro-1H-pyrazolo[3,4-d]pyrimidine-3-carbonitrile] | 225 nM |
| CC(C1CCOCC1)n1nc(C#N)c2c(=O)[nH]c(C3CCC3n3cc(C#N)cn3)nc21 (centres unmarked) [Example 41, 6-(2-(4-cyano-1H-pyrazol-1-yl)cyclobutyl)-4-oxo-1-(1-(tetrahydro-2H-pyran-4-yl)ethyl)-4,5-dihydro-1H-pyrazolo[3,4-d]pyrimidine-3-carbonitrile] | 608 nM |
| C[C@@H](c1ccc(C(F)(F)F)nc1)n1nc(C#N)c2c(=O)[nH]c(C3CCC3n3cc(C(F)(F)F)cn3)nc21 (stereo partly drawn) [Example 43, 4-oxo-6-(2-(4-(trifluoromethyl)-1H-pyrazol-1-yl)cyclobutyl)-1-((S)-1-(6-(trifluoromethyl)pyridin-3-yl)ethyl)-4,5-dihydro-1H-pyrazolo[3,4-d]pyrimidine-3-carbonitrile] | 4.75 nM |
| CC(c1ccc(C(F)(F)F)nc1)n1nc(C#N)c2c(=O)[nH]c(C3CCC3n3cc(C(F)F)cn3)nc21 (centres unmarked) [Example 45, 6-(2-(4-(difluoromethyl)-1H-pyrazol-1-yl)cyclobutyl)-4-oxo-1-(1-(6-(trifluoromethyl)pyridin-3-yl)ethyl)-4,5-dihydro-1H-pyrazolo[3,4-d]pyrimidine-3-carbonitrile] | 115 nM |
| CC(C1CCOCC1)n1nc(C#N)c2c(=O)[nH]c(C3CCC3n3cccn3)nc21 (centres unmarked) [Example 46, 6-(2-(1H-pyrazol-1-yl)cyclobutyl)-4-oxo-1-(1-(tetrahydro-2H-pyran-4-yl)ethyl)-4,5-dihydro-1H-pyrazolo[3,4-d]pyrimidine-3-carbonitrile] | 608 nM |
